# Reference: ChEMBL document CHEMBL1201862, “PubChem BioAssay data set” (2004)
#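 Values below derive from 48-hour exposures of cells grown in 96-well plates, with endpoints linearly interpolated between the two concentrations bracketing the appropriate inhibition level. GI50 marks 50% less growth.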 Active and inactive are the calls of the source. No stated cut-off is given here; in the data, active = GI50 up to about 1.1 µM and inactive = higher.
# Experiments:
# Assay in all cases: NCI-60 cell line screen, 48 h
# [1] = tested on: CCRF-CEM
# [2] = tested on: DU-145
# [3] = tested on: HCC 2998
# [4] = tested on: HCT-15
# [5] = tested on: HL-60
# [6] = tested on: KM12
# [7] = tested on: MCF7
# [8] = tested on: MDA-MB-435
# [9] = tested on: Malme-3M
# [10] = tested on: NCI-H460
# [11] = tested on: NCI-H522
# [12] = tested on: NCI/ADR-RES
# [13] = tested on: SK-MEL-2
# [14] = tested on: SK-OV-3
# [15] = tested on: SN12C
# [16] = tested on: SNB-75
# [17] = tested on: SW-620
# [18] = tested on: NCI-H226
# [19] = tested on: PC-3
# [20] = tested on: RXF 393
SMILES,GI50 [1],GI50 [2],GI50 [3],GI50 [4],GI50 [5],GI50 [6],GI50 [7],GI50 [8],GI50 [9],GI50 [10],GI50 [11],GI50 [12],GI50 [13],GI50 [14],GI50 [15],GI50 [16],GI50 [17],GI50 [18],GI50 [19],GI50 [20]
CCOC(=O)CNC(=O)C(C)NC(=O)C(NC(=O)CC(c1ncc[nH]1)c1ncc[nH]1)C(C)CC (stereo unspecified),> 100 µM (inactive),> 100 µM (inactive),> 100 µM (inactive),> 100 µM,> 100 µM (inactive),> 100 µM (inactive),> 100 µM (inactive),> 100 µM (inactive),> 100 µM (inactive),> 100 µM (inactive),> 100 µM (inactive),> 100 µM (inactive),> 100 µM (inactive),> 100 µM (inactive),> 100 µM (inactive),> 100 µM (inactive),> 100 µM (inactive),,,
COC(=O)C1Cc2cc3c(cc2C1)CCC3,> 100 µM (inactive),> 100 µM (inactive),> 100 µM (inactive),> 100 µM,> 100 µM (inactive),> 100 µM (inactive),> 100 µM (inactive),> 100 µM (inactive),> 100 µM (inactive),> 100 µM (inactive),,> 100 µM (inactive),> 100 µM (inactive),> 100 µM (inactive),> 100 µM (inactive),> 100 µM (inactive),> 100 µM (inactive),> 100 µM (inactive),> 100 µM (inactive),> 100 µM (inactive)
COC(=O)C1CCCN1C(=O)OC(C)(C)C (stereo unspecified),> 100 µM (inactive),> 100 µM (inactive),> 100 µM (inactive),> 100 µM,,> 100 µM (inactive),> 100 µM (inactive),> 100 µM (inactive),,> 100 µM (inactive),,> 100 µM (inactive),> 100 µM (inactive),> 100 µM (inactive),> 100 µM (inactive),> 100 µM (inactive),> 100 µM (inactive),> 100 µM (inactive),> 100 µM (inactive),> 100 µM (inactive)
C/C(Cl)=N\OC(=O)Nc1ccccc1C(F)(F)F,21.1 µM (inactive),> 100 µM (inactive),> 100 µM (inactive),> 100 µM,3.5 µM (inactive),> 100 µM (inactive),14.9 µM (inactive),,20.9 µM (inactive),> 100 µM (inactive),,19.3 µM (inactive),> 100 µM (inactive),> 100 µM (inactive),> 100 µM (inactive),20.9 µM (inactive),17.9 µM (inactive),,> 100 µM (inactive),
Nc1nc(O)c2ncn(C3OC(CO)C(O)C3O)c2n1 (stereo unspecified),23.9 µM (inactive),,17.1 µM (inactive),,37.6 µM (inactive),80 µM (inactive),33.8 µM (inactive),,,,41.9 µM (inactive),18.4 µM (inactive),71.1 µM (inactive),95.7 µM (inactive),79.8 µM (inactive),15.4 µM (inactive),76.7 µM (inactive),72.6 µM (inactive),,6.84 µM (inactive)
CCN1CCC(O)(c2ccc(Oc3ccc(C)cc3)cc2)C(C(=O)c2ccc(Oc3ccc(C)cc3)cc2)C1 (stereo unspecified),5.13 µM (inactive),7.28 µM (inactive),7.91 µM (inactive),4.01 µM,1.68 µM (inactive),6.37 µM (inactive),2.42 µM (inactive),11.6 µM (inactive),14.6 µM (inactive),3.28 µM (inactive),,13.8 µM (inactive),18 µM (inactive),16.1 µM (inactive),14.8 µM (inactive),7.16 µM (inactive),12.9 µM (inactive),14.1 µM (inactive),10.9 µM (inactive),2.81 µM (inactive)
Nc1ccc(C2NC(=O)Cc3c2ccc2ccccc32)cc1 (stereo unspecified),80 µM (inactive),> 100 µM (inactive),69 µM (inactive),84.1 µM,35.2 µM (inactive),> 100 µM (inactive),76 µM (inactive),68.5 µM (inactive),47 µM (inactive),71.1 µM (inactive),> 100 µM (inactive),,> 100 µM (inactive),> 100 µM (inactive),,> 100 µM (inactive),> 100 µM (inactive),34.4 µM (inactive),45.8 µM (inactive),
CCC(CC)C(=O)OC[n+]1ccc(-c2c(COC(=O)NC(C)C)c(COC(=O)NC(C)C)c3n2CCC3)cc1,> 100 µM (inactive),,> 100 µM (inactive),> 100 µM,> 100 µM (inactive),,> 100 µM (inactive),,,,> 100 µM (inactive),> 100 µM (inactive),,> 100 µM (inactive),> 100 µM (inactive),,> 100 µM (inactive),> 100 µM (inactive),> 100 µM (inactive),> 100 µM (inactive)
COc1ccc(C(C2=C(O)COC2=O)c2cc3c(cc2O)OCO3)cc1OC (stereo unspecified),> 100 µM (inactive),> 100 µM (inactive),> 100 µM (inactive),> 100 µM,> 100 µM (inactive),> 100 µM (inactive),> 100 µM (inactive),> 100 µM (inactive),> 100 µM (inactive),> 100 µM (inactive),,> 100 µM (inactive),> 100 µM (inactive),> 100 µM (inactive),> 100 µM (inactive),> 100 µM (inactive),> 100 µM (inactive),> 100 µM (inactive),> 100 µM (inactive),> 100 µM (inactive)
